2 molecules from US20210206818A1, “MESSENGER RIBONUCLEIC ACIDS FOR THE PRODUCTION OF INTRACELLULAR BINDING POLYPEPTIDES AND METHODS OF USE THEREOF” (ModernaTX, Inc., priority 2016, published 2021) can be followed below.

One data set deals with MCL1. Description: Western blotting of MCL1 downregulation in Hep3B cells. It counts as cell-based, human. Particulars: 24 hours, sorafenib at 10 uM. The protocol: A first series of experiments was conducted to determine whether specific targeting of MCL1 recapitulates sorafenib synergy with SQT-BH3 in cells in vitro.
Background: A western blot detects proteins with antibodies after separation by electrophoresis.

The subject of data set [1] is Hep3B human hepatocellular carcinoma cells. Nature of the data set: Cell death of Hep3B cells transfected with truncated BID (tBID) mmRNA constructs (CellTiterGlo). The note with it: CellTiterGlo (CTG) assay, varying doses. It counts as cell-based. An excerpt: One construct encoded a single copy of amino acids 61-195 of the BID protein that includes its BH3 domain (with a FLAG epitope tag). The open reading frame (ORF) amino acid sequence and corresponding nucleotide sequence encoding the ORF a.a. sequence are shown in SEQ ID NOs: 289 and 290, respectively. The sequence for the corresponding construct without the FLAG epitope tag is shown in SEQ ID NO: 291. A second construct encoded a single copy of amino acids 77-195 of the BID protein that includes its BH3 domain (with a FLAG epitope tag). The open reading frame (ORF) amino acid sequence and corresponding nucleotide sequence encoding the ORF a.a. sequence are shown in SEQ ID NOs: 292 and 293, respectively. The sequence for the corresponding construct without the FLAG epitope tag is shown in SEQ ID NO: 294. The open reading frame (ORF) amino acid sequence and corresponding nucleotide sequence encoding the ORF a.a. sequence of a third construct, containing amino acids 61-104 of the BID protein, are shown in SEQ ID NOs: 286 and 287, respectively. The sequence for the corresponding construct without the FLAG epitope tag is shown in SEQ ID NO: 288. […]
Hep3B cells/well were plated in 96 well plates and the cells were transfected with varying doses of the mmRNA constructs. Cell death was measured using the CellTiterGlo (CTG) assay. […]
In general terms: Cellular ATP, detected with luciferase, serves as a proxy for viable cell number.

Turning to `CNC(=O)c1cc(Oc2ccc(NC(=O)Nc3ccc(Cl)c(C(F)(F)F)c3)cc2)ccn1` [sorafenib], the “MCL1 downregulation (Western blotting)” value in the data set with MCL1 is given as “downregulated MCL1”.

B1: tBID (77-195): mmRNA encoding a single copy of amino acids 77-195 of the BID protein with FLAG tag; SEQ ID NOs: 292 and 293 (nucleic acid)
DNA: ATGGAAAGTCAAGAAGACATCATCCGGAATATTGCCAGGCACCTCGCCCAGGTCGGGGACAGCATGGACCGTAGCATCCCTCCGGGCCTGGTGAACGGCCTGGCCCTGCAGCTCAGGAACACCAGCCGGTCGGAGGAGGACCGGAACAGGGACCTGGCCACTGCCCTGGAGCAGCTGCTGCAGGCCTACCCTAGAGACATGGAGAAGGAGAAGACCATGCTGGTGCTGGCCCTGCTGCTGGCCAAGAAGGTGGCCAGTCACACGCCGTCCTTGCTCCGTGATGTCTTTCACACAACAGTGAATTTTATTAACCAGAACCTACGCACCTACGTGAGGAGCTTAGCCAGAAATGGGATGGACATGGATTACAAGGACGATGATGACAAG
modifications: mmRNA, FLAG tag; Synthetic: hum.tBID(77-195).FLAG
On to B1, for which, in data set [1], the “apoptosis of Hep3B cells” value was “induced apoptosis of Hep3B cells”.
